Where a name gives a salt, the structure may show the parent alone. Read-outs that look alike come from different tables or passages of the source.
Tests used:
[1] = tested on: ligand-inducible IFNAR1 degron kinase activity; experiment: Phosphorylation-binding assay: GST-IFNAR1 phosphorylated by CK1α-depleted lysates of IFN-α-treated cells, then binding of 35S-labeled β-Trcp2; format: biochemical, human; settings: inhibitor added in vitro: H89 200 nM, BAY43-9006 50 nM, Bis-I 25 nM, Gö6976 25 nM, LY294002 1.5 μM, SP600125 100 nM, D4476 400 nM, SB203580 100 nM
Experimental: For some binding assays, the lysates from 293T cells (treated for various tunes with IFN-α, 2000 IU/mL) were depleted of CK1α (as described previously (Liu, et al., 2009, Mal Cell Biol 29(24):6401-12) were incubated with GST-IFNAR1 proteins (wild type or S535,539A mutant that migrates slower on SDS-PAGE due to the presence of four additional amino acids in the linker), ATP and kinase inhibitors (as indicated) for 30 min at 30° C. After that, GST-IFNAR1 were purified and incubated with in vitro translated and 35S-methionine-labeled 3-Trcp2 for 1 h at 4° C.; this binding was later analyzed by autoradiography and Coomassie staining. In vitro serine phosphorylation of GST-IFNAR1 (analyzed by autoradiography or IB with pS535 antibody) by cell extracts or PKD preparations and tyrosine phosphorylation of GST-PKD2 by Tyk2 was carried out and analyzed as described elsewhere herein.
For other binding assays, the lysates from 293T cells (treated for various times with IFN-α, 2000 IU/mL) underwent two rounds of immunodepletion of CK1α as described elsewhere (Liu, et al., 2009, Mol Cell Biol 29(24):6401-12). GST-IFNAR1 proteins (wild type or S535,539A mutant that migrates slower on SDS-PAGE due to the presence of four additional amino acids in the linker (Liu et al., 2009, Cell Host Microbe 5(1):72-83)) were expressed and purified from bacterial cells using glutathione Sepharose. Purified bacterial proteins (2 μg) were incubated in the presence of CK1α-depleted cell lysates (5 μg), unlabeled ATP (0.5 mM) in total volume of 20 μL (containing 25 mM Tris-HCL pH 7.5, 5 mM MgCl2, 100 mM KCl, 1 mM EGTA, 1 mM Na3VO4, 0.1 mM DTT and 3.5% glycerol) for 30 min at 30° C. When indicated, the following kinase inhibitors were added to the reaction in I pi, of DMSO to the final concentration indicated: H89 (200 nM), BAY43-9006 (50 nM), Bis-I (25 nM), Gö6976 (25 nM), LY294002 (1.5 μM), SP600125 (100 nM), D4476 (400 nM), SB203580 (100 nM). The reactions were stopped by placing the tubes on ice and adding 150 μL of ice-cold binding buffer (PBS supplemented with 0.1% NP40 and 50 mM NaF) and incubated with glutathione Sepharose beads (20 μL) for 2 h at 4° C. The beads were then washed three times with 0.5 mL of binding buffer and incubated with 2 μL of in vitro translated and 35S-methionine-labeled13-Trcp2 for 1 h at 4° C. Beads were then washed three times with 1 mL of binding buffer, and the proteins were eluted using Laemmli buffer, resolved by SDS-PAGE, and analyzed by autoradiography and Coomassie staining.

[2] = tested on: IFNAR1 Ser535 phosphorylation; format: cell-based, human
PKD2 [3] = biological target: T1, PKD2 (Homo sapiens, UniProt Q9BZL6); experiment: In vitro phosphorylation of GST-IFNAR1 on Ser535 by purified GST-PKD2; format: biochemical; design: made in house; host or cells: 293T cells (human), transient expression, glutathione pull-down; settings: Gö6976 20-200 nM
T1 sequence (Q9BZL6 1-878): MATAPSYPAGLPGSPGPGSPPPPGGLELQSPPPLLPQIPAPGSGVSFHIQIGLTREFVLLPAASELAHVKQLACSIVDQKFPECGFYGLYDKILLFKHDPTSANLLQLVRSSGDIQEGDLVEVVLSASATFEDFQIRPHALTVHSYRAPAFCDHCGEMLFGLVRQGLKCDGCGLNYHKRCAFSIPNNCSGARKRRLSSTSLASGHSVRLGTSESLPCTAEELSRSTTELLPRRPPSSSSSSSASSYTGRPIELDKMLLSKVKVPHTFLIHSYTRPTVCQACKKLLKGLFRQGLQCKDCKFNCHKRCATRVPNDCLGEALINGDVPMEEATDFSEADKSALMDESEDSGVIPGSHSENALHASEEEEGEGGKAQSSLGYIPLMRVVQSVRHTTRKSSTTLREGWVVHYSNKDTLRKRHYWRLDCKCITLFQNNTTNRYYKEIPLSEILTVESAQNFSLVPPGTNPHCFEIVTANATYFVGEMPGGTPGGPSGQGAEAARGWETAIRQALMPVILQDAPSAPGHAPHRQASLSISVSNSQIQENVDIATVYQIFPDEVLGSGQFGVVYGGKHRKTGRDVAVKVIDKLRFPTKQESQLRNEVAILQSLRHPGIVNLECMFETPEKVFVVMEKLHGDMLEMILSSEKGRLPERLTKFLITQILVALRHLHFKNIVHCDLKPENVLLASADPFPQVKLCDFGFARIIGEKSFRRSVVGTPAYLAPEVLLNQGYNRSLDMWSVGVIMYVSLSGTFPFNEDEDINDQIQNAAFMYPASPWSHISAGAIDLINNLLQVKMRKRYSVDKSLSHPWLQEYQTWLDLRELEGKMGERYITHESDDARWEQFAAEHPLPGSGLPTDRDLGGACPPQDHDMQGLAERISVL
Experimental: In vitro phosphorylation of GST-IFNAR1 by cell extracts or PKD preparations (via immunopurification or GST pulldown) was carried out in kinase buffer (50 mM Tris-HCl pH 7.4, 10 mM MgC12, and 2 mM DTT) with either 0.2 mM of unlabeled ATP or 10 μCi of γ-32P ATP for 20 min at 30° C. The products of this reaction were separated by SDS-PAGE and analyzed either by immunoblotting using anti-pS535 antibody or by autoradiography.

protein kinase D (PKD) = settings: literature (Gschwendt et al., 1996; Sharlow et al., 2008); cited from earlier work
[4] = tested on: IFNAR1 Ser535 phosphorylation; experiment: IFN-α-induced Ser535 (degron) phosphorylation of IFNAR1 in cells, IP-immunoblot with anti-pS535; format: cell-based, human
Experimental: Immunoprecipitation and immunoblotting procedures are described elsewhere (Fuchs et al, 1999, Oncogene 18:2039-2046). Protein degradation was carried out by cycloheximide (CHX, used at 20 μg/ml) chase. IFNAR1 internalization assay was carried out using the Fluorescence-based assay as described elsewhere (Kumar et al., 2007, J Cell Biol 179:935-950). BAY 43-9006 was obtained as a gift. Recombinant human IFN-a2 (Roferon) was purchased from Roche. Other reagents or inhibitors were purchased from commercial vendors.
Antibodies against Flag, GST and j3-actin (Sigma), HA (12CA, Roche), CK1α, PICD1/2 (PKCμ), PKD3 (PKCν), Tyk2, intracellular domain of hIFNAR1 and PKR, (Santa Cruz), anti-pan-phospho-tyrosine (4G10), phospho-Stat1 and Stat1 (Cell signaling), phospho-S710 of PKD2 (Biosource), PKD2 (Bethyl Laboratories), mIFNAR1 (Leinco) and ubiquitin (FK2, Biomol) were purchased. AA3, GB8 and EAl2 antibodies which recognize endogenous IFNAR1 (Goldman et al., 1999) and antibodies against IFNAR1 phosphorylated on Ser535 (pS535; (Kumar et al., 2004, J Biol Chem 279:46614-46620)) were described previously. Secondary antibodies conjugated to horseradish peroxidase were purchased from Chemicon and LI-COR. Immunoprecipitation and immunoblotting procedures are described elsewhere (Fuchs et al, 1999, Oncogene 18:2039-2046). Protein degradation was carried out by cycloheximide (CHX) chase in the presence of CHX (20 μg/ml). Immunoblot detection and quantification were carried out using the LI-COR's Odyssey Infrared Imaging System.

IFNAR1 [5] = tested on: IFNAR1
IFNAR1 [6] = format: cell-based, human
IFN signaling = experiment: Sangivamycin effect on IFN signaling (FIGS. 37-38)
PKD2 [7] = biological target: T1, PKD2; experiment: Sangivamycin inhibition of PKD2 (FIGS. 37-38)
Stat1 = Stat1 tyrosine phosphorylation in response to IFN-α, immunoblot; format: cell-based, human
[8] = tested on: IFNAR1 Ser532 phosphorylation; format: cell-based, human
[9] = tested on: IFNAR1 Ser535 phosphorylation; format: cell-based, human; remark: listed apart in the source

CNC(=O)c1cc(Oc2ccc(NC(=O)Nc3ccc(Cl)c(C(F)(F)F)c3)cc2)ccn1 [BAY 43-9006]
recruitment of β-Trcp2 to GST-IFNAR1 (phosphorylation-binding assay) [1]: not inhibited

CN(C)CCCn1cc(C2=C(c3c[nH]c4ccccc34)C(=O)NC2=O)c2ccccc21 [Bis I, bisindolylmaleimide I]
recruitment of β-Trcp2 to GST-IFNAR1 (phosphorylation-binding assay) [1]: did not affect

NCCNS(=O)(=O)c1ccc(Cl)c2ccncc12 [CKI-7]
ligand-independent Ser535 phosphorylation of Flag-IFNAR1 [2]: decreased

NC(=O)c1ccc(-c2nc(-c3ccc4c(c3)OCCO4)c(-c3ccccn3)[nH]2)cc1 [D4476]
Ser535 phosphorylation of IFNAR1 in response to TG [2]: noticeably attenuated
TG-induced phosphorylation of eIF2α [2]: comparable induction
eIF2a phosphorylation in VSV-infected cells [2]: without affecting
virus-induced S535 phosphorylation of IFNAR1 [2]: markedly attenuated
virus-induced downregulation of IFNAR1 [2]: markedly attenuated
recruitment of β-Trcp2 to GST-IFNAR1 (phosphorylation-binding assay) [1]: noticeable inhibition

Cn1c2ccccc2c2c3c(c4c5ccccc5n(CCC#N)c4c21)CNC3=O [Gö6976]
in vitro phosphorylation of GST-IFNAR1 on Ser535 by GST-PKD2 (PKD2 [3]): decreased the efficacy of IFNAR1 phosphorylation in a dose dependent manner
inhibition of / specificity against PKD (protein kinase D (PKD)): shown to inhibit
induction of Ser535 phosphorylation of Flag-IFNAR1 by IFN-α ([4]; U3A cells stably expressing Flag-IFNAR1, inhibitor pre-treatment): noticeably decreased
basal Ser535 (degron) phosphorylation of overexpressed IFNAR1 ([4]; U3A cells stably expressing Flag-IFNAR1, no ligand): neither the PKD inhibitor Gö6976 nor siRNA against PKD2 decreases
recruitment of β-Trcp2 to GST-IFNAR1 (phosphorylation-binding assay) [1]: dramatic inhibition

O=S(=O)(NCCNC/C=C/c1ccc(Br)cc1)c1cccc2cnccc12 [H89]
recruitment of β-Trcp2 to GST-IFNAR1 (phosphorylation-binding assay) [1]: noticeable inhibition

C[S+]([O-])c1ccc(-c2nc(-c3ccncc3)c(-c3ccc(F)cc3)[nH]2)cc1 (centres unmarked) [SB203580]
recruitment of β-Trcp2 to GST-IFNAR1 (phosphorylation-binding assay) [1]: not inhibited

OO [hydrogen peroxide]
phosphorylation of endogenous IFNAR1 on Ser535 in the absence of IFN-α (IFNAR1 [5]; HeLa cells): noticeably stimulated

CN [methylamine HCl]
thapsigargin-induced decrease of IFNAR1 levels (IFNAR1 [6]; 293T cells pre-treated with MA 20 mM 1 h): prevented

NC(=O)c1cn([C@@H]2O[C@H](CO)[C@@H](O)[C@H]2O)c2ncnc(N)c12 [sangivamycin]
efficiency of IFN signaling (IFN signaling): increases the efficiency of IFN signaling
inhibition of PKD2 (PKD2 [7]): inhibits

C/C=C(/C)C(=O)O[C@H]1C(C)=C2[C@H]([C@@H]1OC(=O)CCCCCCC)[C@@](C)(OC(C)=O)C[C@H](OC(=O)CCC)[C@@]1(O)[C@H]2OC(=O)[C@@]1(C)O [thapsigargin]
tyrosine phosphorylation of Stat1 induced by IFN-α (Stat1; 293T cells pre-treated with TG 1 μM 4 h, IFNα 50 IU/ml 30 min): noticeably decreased
activation of PERK assessed via phosphorylation of eIF2α ([2]; 293T cells, TG 1 μM 30 min): caused activation of PERK
half life of IFNAR1 (IFNAR1 [6]; 293T cells treated with cycloheximide, TG 1 μM): decreased
levels of IFNAR1 (IFNAR1 [6]; human 293T cells, TG 1 μM, within two hours, absence of IFN): decreased
ubiquitination of IFNAR1 (IFNAR1 [6]; human fibrosarcoma cells with WT or KR Tyk2 and 293T cells): induced
extent of ubiquitination of wild type IFNAR1 ([8]; Flag-IFNAR1 in 293T cells, TG 1 μM): noticeably increased
phosphorylation of endogenous IFNAR1 on Ser532 and Ser535 ([8]; HeLa cells, TG 1 μM 30 min): led to phosphorylation of endogenous IFNAR1 on both Ser532 and Ser535
Ser535 phosphorylation of IFNAR1 in cells with wild type (WT) or catalytically inactive (KR) Tyk2 ([9]; 2fTGH-derived Tyk2 WT vs KR cells, 30 min): comparable levels
phosphorylation of endogenous IFNAR1 on Ser535 in the absence of IFN ([9]; 293T cells, TG 1 μM 30 min, DTT 5 mM 30 min): stimulated

VEGF
Stat1 phosphorylation in response to IFN-α (Stat1; human umbilical vein endothelial cells, VEGF 100 ng/ml 2 h, IFN-α 15 min): noticeably inhibits
phosphorylation of Flag-IFNAR1 on Ser535 (IFNAR1 [5]; U3A cells stably expressing Flag-IFNAR1, VEGF 100 ng/ml): increased
ubiquitination of IFNAR1 (IFNAR1 [5]; U3A-Flag-IFNAR1 cells, VEGF treatment): stimulated
